Measurements: patent US20240245677A1, “SELECTED COMPOUNDS FOR TARGETED DEGRADATION OF BRD9” (C4 THERAPEUTICS, INC., priority 2021, published 2024)

System: SW982 cells
Assay: SW982 in vitro viability assay (CellTiter-Glo, 144 hours)
Type: cell-based, human
Procedure: SW982 cells were obtained from ATCC (Catalog No. HTB-93, Manassas, VA, USA) and maintained in DMEM medium (Catalog No. 12430112, ThermoFisher Scientific, Waltham, MA, USA) supplemented with 10% fetal bovine serum (FBS) (Catalog No. 16000-044, Gibco, Grand Island, NY, USA) at 37° C. in an atmosphere of 5% CO2 in air. The cells were routinely sub-cultured to maintain cell density between 3×10^5-1.5×10^6 cells/mL, not to exceed 20 passages. The cells growing in an exponential growth phase were harvested by centrifugation at 1000 rpm and resuspended in fresh growth media. An aliquot was diluted 2× with Trypan Blue solution 0.4% (Catalog No. 15250061, ThermoFisher Scientific, Waltham, MA, USA) and cell count was determined. Cell concentration was adjusted with growth media to 1.0×10^4 cells/mL.
Compound 1 was prepared by dissolving neat compound in DMSO (Catalog No. D8418, Sigma-Aldrich, Inc., St. Louis, MO, USA) to generate 10 mM stock solution and stored at −20° C. 10 mM DMSO stock solution was serially diluted (half log) in DMSO to generate 10-point dose series (10000, 3160, 1000, 316, 100, 31.6, 10, 3.16, 1, 0.32 μM) in acoustic ready 384-well low dead volume microplates (Catalog No. LP-0200, Beckman Coulter Life Sciences, Indianapolis, IN, USA). 50 nL of serially diluted compound solutions were dispensed using the Echo 550 Acoustic Liquid Handler Handler (Beckman Coulter Life Sciences, Indianapolis, IN, USA) in duplicate to each 384-well black TC-treated microplate (Catalog No. 3571, Corning, Glendale, CA, USA). 50 nL DMSO was transferred to all control wells.
50 μL SW982 cells suspended in growth media at 1.0×10^4 cells/mL (500 cells/well) were dispensed using a Multidrop Combi Reagent Dispenser (Catalog No. 5840300, ThermoFisher Scientific, Waltham, MA, USA) to each well of 384-well black TC-treated microplates containing duplicate concentration range of test compounds and DMSO controls. Plates were spun briefly at 1000 rpm and cells were incubated at 37° C., 5% CO2 for 144 hours. Final concentration of DMSO was 0.1% for all samples.
Additional cell plates (TO plates) were prepared by dispensing cells into a blank 384-well black TC-treated microplate to represent cytostatic controls and processed for viability detection immediately after cell dispensing.
SW982 cell viability was determined based on quantification of ATP using CellTiter-Glo® 2.0 luminescent assay kit (Catalog No. G9243, Promega, Madison, WI, USA), which signals the presence of metabolically active cells. On Day 0 (Time 0) and Day 6 (144 hours) 25 μL CellTiter-Glo® reagent was added to each well of cell plates except the wells in column 24 and the luminescence was measured after 4 hours incubation at room temperature using an EnVision® Multilabel Reader (Catalog No. 2104-0010, Perkin Elmer Inc., Dumfries, VA, USA). Column 24 (cells without CellTiter-Glo® addition) was used as plate background or positive control (P). Cytostatic control value (CT0) was computed from TO plate read using untreated cell signals (UT=0) and positive control signals (PT=0) as below.
Percent response of compound-treated samples at a time point T were calculated by normalizing the signal with P and DMSO treated negative (N) controls on the same microtiter plate and the CT0 control:
The Response % is thus 100% if the CellTiter-Glo® signal equals that of the DMSO treated controls (i.e., normal cell growth), 0% if it equals that of untreated cell at TO (i.e., cytostasis), and −100% if it equals the no CellTiter-Glo® reagent controls (i.e., complete cytotoxicity).
Curve fit and GI50 determination was performed by 4 parametric logistic fit analysis using software such as GraphPad Prism software (GraphPad Software, LLC, San Diego, CA, USA). The fit was performed through minimization of the root mean squared error between observed and calculated values of the four-parameter logistic equation using the simplex optimizer of the Apache Commons Math library. […]

COc1cc(-c2cn(C)c(=O)c(C)c2C)cc(OC)c1CN1CC[C@H](N2CCN(c3ccc(N[C@H]4CCC(=O)NC4=O)cc3F)CC2)C(F)(F)C1 [Compound 1, (S)-3-((4-(4-((S)-1-(2,6-dimethoxy-4-(1,4,5-trimethyl-6-oxo-1,6-dihydropyridin-3-yl)benzyl)-3,3-difluoropiperidin-4-yl)piperazin-1-yl)-3-fluorophenyl)amino)-piperidine-2,6-dione]
viability at 0.000318 µM (Homo sapiens, SW982, 144 h, 0.318 nM, read-out: % SW982 Viability Relative to Vehicle Control at 144 hr, Mean): 96.2% | viability at 0.00101 µM (Homo sapiens, SW982, 144 h, 1.01 nM, read-out: % SW982 Viability Relative to Vehicle Control at 144 hr, Mean): 99.6% | viability at 0.00317 µM (Homo sapiens, SW982, 144 h, 3.17 nM, read-out: % SW982 Viability Relative to Vehicle Control at 144 hr, Mean): 97.2% | viability at 0.01 µM (Homo sapiens, SW982, 144 h, 10.0 nM, read-out: % SW982 Viability Relative to Vehicle Control at 144 hr, Mean): 101% | viability at 0.0317 µM (Homo sapiens, SW982, 144 h, 31.7 nM, read-out: % SW982 Viability Relative to Vehicle Control at 144 hr, Mean): 95.7% | viability at 0.1 µM (Homo sapiens, SW982, 144 h, 100 nM, read-out: % SW982 Viability Relative to Vehicle Control at 144 hr, Mean): 96.4% | viability at 0.317 µM (Homo sapiens, SW982, 144 h, 317 nM, read-out: % SW982 Viability Relative to Vehicle Control at 144 hr, Mean): 91.9% | viability at 1 µM (Homo sapiens, SW982, 144 h, 1000 nM, read-out: % SW982 Viability Relative to Vehicle Control at 144 hr, Mean): 88.6% | viability at 3.161 µM (Homo sapiens, SW982, 144 h, 3161 nM, read-out: % SW982 Viability Relative to Vehicle Control at 144 hr, Mean): 85.7% | viability at 9.99 µM (Homo sapiens, SW982, 144 h, 9990 nM, read-out: % SW982 Viability Relative to Vehicle Control at 144 hr, Mean): 84.2% | GI50 (Homo sapiens, SW982 cells, 144-hour treatment, read-out: Geometric Mean GI50): > 10 µM | Emax (Homo sapiens, SW982 cells, 144-hour treatment, read-out: Mean Emax (%) ± SD): 84.2 ± 4.6% | growth inhibition at the highest concentration tested (SW982 cells, 144-hour treatment): < 20%
